Measurements taken from EP0369388B1, “Hydroxy-1,2,3,4-tetrahydroaminoacridines, a process for their preparation and their use as medicaments” (HOECHST-ROUSSEL PHARMACEUTICALS INCORPORATED, priority 1988, dated 1990).
Structures can show the parent of a compound that is named as a salt. Where two headings read alike, the source gives them in different places.

Columns and labels:
acetylcholinesterase = acetylcholinesterase (Homo sapiens, UniProt P22303); assay: biochemical
Experimental: The ability to inhibit acetylchlinesterase was determined by the photometric method of Ellman et al., Biochem. pharmacol.

mice = assay: Dark Avoidance Assay (reversal of scopolamine induced memory deficit); assay type: in vivo
Experimental: This utility can also be ascertained by determining the ability of these compounds to restore cholinergically deficient memory in the Dark Avoidance Assay. In this assay mice are tested for their ability to remember an unpleasant stimulus for a period of 24 hours. A mouse is placed in a chamber that contains a dark compartment; a strong incadescent light drives it to the dark compartment, where an electric shock is administered through metal plates on the floor. The animal is removed from the testing apparatus and tested again, 24 hours later, for the ability to remember the electric shock.
If scopolamine, an anticholinergic that is known to cause memory impairment, is administered before an animal's initial exposure to the test chamber, the animal re-enters the dark compartment shortly after being placed in the test chamber 24 hours later. This effect of scopolamine is blocked by an active test compound, resulting in a greater interval before re-entry into the dark compartment.
The results for an active compound are expressed as the percent of a group of animals in which the effect of scopolamine is blocked, as manifested by an increased interval between being placed in the test chamber and re-entering the dark compartment.

[1] = Acetylcholinesterase Inhibition, read-out: IC50 (molar conc.)
[2] = Dose 5.0 mg/kg of body weight, s.c, mice, retest after 24 hours

acetylcholinesterase, sequence (P22303 32-614): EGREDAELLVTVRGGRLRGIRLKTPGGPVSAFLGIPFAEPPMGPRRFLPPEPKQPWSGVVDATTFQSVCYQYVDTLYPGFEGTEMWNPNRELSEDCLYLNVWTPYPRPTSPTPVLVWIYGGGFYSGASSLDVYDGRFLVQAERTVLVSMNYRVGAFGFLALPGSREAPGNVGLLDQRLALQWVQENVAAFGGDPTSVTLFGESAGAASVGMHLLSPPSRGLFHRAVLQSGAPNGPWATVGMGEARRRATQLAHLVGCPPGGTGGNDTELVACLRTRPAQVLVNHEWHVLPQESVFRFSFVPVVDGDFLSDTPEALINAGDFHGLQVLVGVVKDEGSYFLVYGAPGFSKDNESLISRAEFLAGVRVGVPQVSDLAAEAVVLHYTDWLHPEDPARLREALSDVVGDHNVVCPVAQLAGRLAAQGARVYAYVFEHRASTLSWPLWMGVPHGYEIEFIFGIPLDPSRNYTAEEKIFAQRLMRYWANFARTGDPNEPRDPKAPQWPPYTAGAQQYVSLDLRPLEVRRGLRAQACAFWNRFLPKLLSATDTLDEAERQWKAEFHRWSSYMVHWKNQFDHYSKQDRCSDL

| SMILES | IC50 (acetylcholinesterase; [1]) | IC50 (acetylcholinesterase) | other results |
| --- | --- | --- | --- |
| CC(=O)OC1CCc2nc3ccccc3c(N)c2C1 (stereo not shown) [2-Acetoxy-1,2,3,4-tetrahydro-9-acridinamine] | 6.5 µM |  | % of Animals with Scopolamine Induced Memory Deficit Reversal (mice; [2]): 29% |
| Nc1c2c(nc3ccccc13)CCC(OCc1ccccc1)C2 (stereo not shown) [2-Benzyloxy-1,2,3,4-tetrahydro-9-acridinamine] |  | > 1000 µM |  |
| CCCC(=O)OC1CCc2nc3ccccc3c(N)c2C1 (stereo not shown) [2-Butyryloxy-1,2,3,4-tetrahydro-9-acridinamine, fumarate] |  | 4.8 µM |  |
| CCCCCCCCCC(=O)OC1CCc2nc3ccccc3c(N)c2C1 (stereo not shown) [2-Decanoyloxy-1,2,3,4-tetrahydro-9-acridinamine, fumarate] |  | > 1000 µM |  |
| CCCCCCC(=O)OC1CCc2nc3ccccc3c(N)c2C1 (stereo not shown) [2-Heptanoyloxy-1,2,3,4-tetrahydro-9-acridinamine, fumarate] | 31 µM |  |  |
| CCCCCC(=O)OC1CCc2nc3ccccc3c(N)c2C1.O=C(O)/C=C/C(=O)O (stereo not shown) [2-Hexanoyloxy-1,2,3,4-tetrahydro-9-acridinamine, fumarate] | 19 µM |  | % of Animals with Scopolamine Induced Memory Deficit Reversal (mice; Dose 0.63 mg/kg of body weight, s.c, mice, retest after 24 hours): 25% |
| CN(C)C=Nc1c2c(nc3ccccc13)CCC(O)C2 (stereo not shown) [2-Hydroxy-N-(dimethylaminomethylene)-1,2,3,4-tetrahydro-9-acridinamine] | > 1000 µM |  |  |
| CCCCCCCCCCCC(=O)OC1CCc2nc3ccccc3c(N)c2C1 (stereo not shown) [2-Lauroyloxy-1,2,3,4-tetrahydro-9-acridinamine] |  | 160 µM |  |
| CCCCCCCCC(=O)OC1CCc2nc3ccccc3c(N)c2C1 (stereo not shown) [2-Nonanoyloxy-1,2,3,4-tetrahydro-9-acridinamine, fumarate] | > 1000 µM |  |  |
| CCCCCCCC(=O)OC1CCc2nc3ccccc3c(N)c2C1 (stereo not shown) [2-Octanoyloxy-1,2,3,4-tetrahydro-9-acridinamine, fumarate] |  | 23 µM |  |
| CCC(=O)OC1CCc2nc3ccccc3c(N)c2C1 (stereo not shown) [2-Propionyloxy-1,2,3,4-tetrahydro-9-acridinamine, fumarate hemihydrate] |  |  | % of Animals with Scopolamine Induced Memory Deficit Reversal (mice; [2]): 13% |
| CCCCC(=O)OC1CCc2nc3ccccc3c(N)c2C1 (stereo not shown) [2-Valeryloxy-1,2,3,4-tetrahydro-9-acridinamine, fumarate] |  | 12 µM |  |
| Nc1c2c(nc3ccccc13)C(OCc1ccccc1)CCC2 (stereo not shown) [4-Benzyloxy-1,2,3,4-tetrahydro-9-acridinamine] |  | 820 µM |  |
| Nc1c2c(nc3ccccc13)CCC(O)C2.O=C(O)/C=C\C(=O)O (stereo not shown) [9-Amino-1,2,3,4-tetrahydroacridin-2-ol, maleate] | 5.3 µM |  | % of Animals with Scopolamine Induced Memory Deficit Reversal (mice; [2]): 20% |
| Nc1c2c(nc3ccccc13)C(O)CCC2 (stereo not shown) [9-Amino-1,2,3,4-tetrahydroacridinamin-4-ol, hemifumarate] | 1.9 µM |  |  |
| CNC(=O)Oc1ccc2c(c1)[C@]1(C)CCN(C)[C@@H]1N2C [Physostigmine, reference compound] |  |  | % of Animals with Scopolamine Induced Memory Deficit Reversal (mice; mouse, in vivo, 0.31 mg/kg): 20% |
